Test results reported in patent US11840686B2, “Modulation of prekallikrein (PKK) expression” (Ionis Pharmaceuticals, Inc., priority 2013, dated 2023).
Strand notation (5' to 3'): a small letter for the sugar, then the base; units joined by * are phosphorothioate-linked, units joined directly phosphodiester-linked; [ ] holds rarer units or linkages, { } end groups; capitals alone tell only the bases. e = 2'-O-(2-methoxyethyl) (MOE); [5mC] = 5-methylcytosine; d = 2'-deoxy (DNA)

Experiments:
human PKK mRNA [1] = test: Dose-dependent antisense inhibition of human PKK in HepaRG cells, 0.12-10.00 uM (Example 4); type: cell-based; conditions: electroporation, ~16 h
Description: Cells were plated at a density of 20,000 cells per well and transfected using electroporation with 0.12 μM, 0.37 μM, 1.11 μM, 3.33 μM, and 10.00 μM concentrations of antisense oligonucleotide. After a treatment period of approximately 16 hours, RNA was isolated from the cells and PKK mRNA levels were measured by quantitative real-time PCR. Human PKK primer probe set RTS3454 was used to measure mRNA levels. PKK mRNA levels were adjusted according to total RNA content, as measured by RIBOGREEN®. The antisense oligonucleotides were tested in a series of experiments that had similar culture conditions. Results are presented as percent inhibition of PKK, relative to untreated control cells.
The half maximal inhibitory concentration (IC50) of each oligonucleotide is also presented.

human PKK mRNA [2] = test: Antisense inhibition of human PKK mRNA in HepaRG cells, 3,000 nM (Example 1); type: cell-based; conditions: relative to untreated control cells
Summary of the method: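 HepaRG cells, 20,000 per well, were electroporated with 3,000 nM 5-10-5 MOE gapmer (phosphorothioate, 5-methylcytosine). After about 24 h, PKK mRNA was measured by qRT-PCR with primer probe set RTS3454 and normalised to RIBOGREEN total RNA. Values are percent inhibition versus untreated cells.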

[3] = Table 2, PKK mRNA, HepaRG cells, 3,000 nM, electroporation, ~24 h
[4] = Table 1, PKK mRNA, HepaRG cells, 3,000 nM, electroporation, ~24 h
[5] = Table 4, HepaRG cells, electroporation with 3,000 nM antisense oligonucleotide, approx. 24 hours, PKK mRNA by RT-PCR (RTS3454)

Substance	percent inhibition of PKK at 0.12 μM (human PKK mRNA [1]; Table 33, 0.12 μM)	percent inhibition of PKK at 0.37 μM (human PKK mRNA [1]; Table 33, 0.37 μM)	percent inhibition of PKK at 1.11 μM (human PKK mRNA [1]; Table 33, 1.11 μM)	percent inhibition of PKK at 3.33 μM (human PKK mRNA [1]; Table 33, 3.33 μM)	percent inhibition of PKK at 10.00 μM (human PKK mRNA [1]; Table 33, 10.00 μM)	IC50 (human PKK mRNA [1]; Table 33, PKK mRNA)	% inhibition (human PKK mRNA [2]; Table 3, HepaRG cells, electroporation with 3,000 nM antisense oligonucleotide, approx. 24 hours, PKK mRNA by RT-PCR (RTS3454))	% inhibition (human PKK mRNA [2]; [3])	percent inhibition of PKK at 0.12 μM (human PKK mRNA [1]; Table 32, 0.12 μM)	percent inhibition of PKK at 0.37 μM (human PKK mRNA [1]; Table 32, 0.37 μM)	percent inhibition of PKK at 1.11 μM (human PKK mRNA [1]; Table 32, 1.11 μM)	percent inhibition of PKK at 3.33 μM (human PKK mRNA [1]; Table 32, 3.33 μM)	percent inhibition of PKK at 10.00 μM (human PKK mRNA [1]; Table 32, 10.00 μM)	IC50 (human PKK mRNA [1]; Table 32, PKK mRNA)	% inhibition (human PKK mRNA [2]; [4])	% inhibition (human PKK mRNA [2]; [5])
531121 (antisense eT*eT*eG*eG*eT*d[5mC]*dT*dA*d[5mC]*dA*dG*dA*dT*dT*d[5mC]*eA*eA*eT*eG*e[5mC]) [compound 531121]	0%	13%	47%	69%	79%	1500 nM	72%	–	–	–	–	–	–	–	–	–
531055 (antisense e[5mC]*e[5mC]*e[5mC]*eT*eT*d[5mC]*dT*dT*dT*dA*dT*dA*dG*d[5mC]*d[5mC]*eA*eG*e[5mC]*eA*e[5mC]) [compound 531055]	3%	28%	64%	76%	81%	900 nM	–	68%	–	–	–	–	–	–	–	–
530965 (antisense eG*eG*e[5mC]*eA*e[5mC]*dA*dG*dG*dG*d[5mC]*dT*dT*d[5mC]*dA*dG*eT*eG*eA*eG*eA) [compound 530965]	–	–	–	–	–	–	–	–	8%	5%	63%	83%	91%	800 nM	73%	–
531234 (e[5mC]*eA*e[5mC]*eT*eG*dT*dA*d[5mC]*dT*dA*dG*dT*dT*dT*d[5mC]*e[5mC]*eT*eA*eT*eA; antisense) [compound 531234]	24%	21%	47%	72%	82%	1400 nM	–	–	–	–	–	–	–	–	–	86%
530971 (antisense eG*eG*eA*eA*e[5mC]*dT*dT*dG*dG*dT*dG*dT*dG*d[5mC]*d[5mC]*eA*e[5mC]*eT*eT*eT) [compound 530971]	–	–	–	–	–	–	–	–	12%	40%	52%	66%	70%	1300 nM	85%	–
531071 (e[5mC]*eT*eG*e[5mC]*eT*d[5mC]*dT*dG*dT*dG*dT*dT*dT*dT*d[5mC]*eT*e[5mC]*eT*eA*eA; antisense) [compound 531071]	23%	37%	56%	83%	83%	700 nM	–	73%	–	–	–	–	–	–	–	–
531078 (eA*eG*e[5mC]*eA*eG*d[5mC]*dT*d[5mC]*dT*dG*dA*dG*dT*dG*d[5mC]*eA*e[5mC]*eT*eG*eT; antisense) [compound 531078]	–	–	–	–	–	–	–	77%	10%	27%	54%	69%	92%	1100 nM	–	–
531233 (eA*e[5mC]*eT*eG*eT*dA*d[5mC]*dT*dA*dG*dT*dT*dT*d[5mC]*d[5mC]*eT*eA*eT*eA*eA; antisense) [compound 531233]	17%	27%	50%	77%	84%	1000 nM	–	–	–	–	–	–	–	–	–	86%
531022 (eG*eT*eA*eA*eT*dG*dT*d[5mC]*dT*dG*dA*d[5mC]*dA*dG*dA*eT*eT*eT*eA*eA; antisense) [compound 531022]	–	–	–	–	–	–	–	74%	0%	0%	32%	62%	77%	2200 nM	–	–
531026 (antisense eA*eT*e[5mC]*eA*eT*dG*dA*dT*dT*d[5mC]*d[5mC]*d[5mC]*dT*dT*d[5mC]*eT*eG*eA*eG*eA) [compound 531026]	23%	26%	49%	75%	85%	1000 nM	–	73%	–	–	–	–	–	–	–	–
530992 (eG*eT*e[5mC]*eA*e[5mC]*dA*dT*dT*d[5mC]*dA*dA*dT*dT*d[5mC]*dT*eT*e[5mC]*eT*e[5mC]*e[5mC]; antisense) [compound 530992]	–	–	–	–	–	–	–	–	0%	50%	63%	83%	80%	700 nM	70%	–
